Source: US20250312314A1, “METHOD AND COMPOSITION FOR IMPROVING OR MAINTAINING SKIN HEALTH OF MAMMALS” (NANJING NUTRABUILDING BIO-TECH CO., LTD., priority 2022, published 2025)

Columns and labels:
Corynebacterium spp. = test: Microbial colonization of reconstructed layered human epidermis, live count; format: cell-based; conditions: 24±2 h
Protocol: (§1) Primary adult human skin fibroblasts were embedded in fibrin matrix to produce dermal equivalent. The dermal equivalent was cultured to allow fibroblasts to reconstruct matrix. Primary neonatal human keratinocytes were applied on the surface of dermal equivalent and cultured in liquid for 48 hours. Culture was carried out on the air-liquid interface (ALI) until a layered epidermis was formed.
(§2) Staphylococcus epidermidis, Corynebacterium spp., Cutibacterium spp., Propionibacterium acnes and Malassezia were cultured in proper culture medium and incubation conditions (37±2° C., 5±1% (v/v) CO2, ≥95% RH). Inoculation buffer (GS25) was used to prepare inoculum containing about 1.1×10^6 cfu mL^−1 microbial flora of the above bacteria. 10 μL of the mixture was used for skin (layered epidermis) colonization, and each unit was colonized with about 10^4 cfu·cm^−2 of each bacterium. After that, the layered epidermis was incubated at 37±2° C., 5±1% (v/v) CO2, ≥95% RH for 3±1 hours.
(§3) α-Glucan Oligosaccharide (α-GO for short) is a famous prebiotic, which can protect skin health by maintaining the balance of microbial population and strengthening the microbial barrier of skin, so the experiment took it as a control. Control (α-GO, 1 μM) and EGT (0 μM, 0.1 μM, 1 μM, 10 μM, 100 μM, 1000 μM) were applied on the layered epidermis respectively, and then incubated for 24±2 hours at 37±2° C., 5±1% (v/v) CO2 and ≥95% RH. Then, the above five kinds of microorganisms were counted respectively to evaluate the inhibitory effect of α-GO and EGT on microbial growth: 8 mm live tissue slices were taken from layered epidermis, and the number of live bacteria (cfu·cm^−2) was evaluated by incubation on appropriate selective solid medium. The choice of solid medium is based on the characteristics of microorganisms themselves.

Cutibacterium spp. = test: as above; format: cell-based; conditions: 24±2 h
Protocol: as §1, §2, §3

Malassezia = test: as above; format: cell-based; conditions: 24±2 h
Protocol: as §1, §2, §3

Propionibacterium acnes = test: as above; format: cell-based; conditions: 24±2 h
Protocol: as §1, §2, §3

[1] = tested on: Staphylococcus epidermidis; test: as above; format: cell-based; conditions: 24±2 h
Protocol: as §1, §2, §3

Streptococcus = test: Relative abundance of Streptococcus in skin of subjects after applying EGT base cream (16S rRNA); format: in vivo, human; conditions: once a day for 4 weeks
Protocol: (§4) Thirty healthy women aged 20-59 were randomly divided into three groups. The first group (0% EGT, n=10) was applied with pure base cream as the control group, the second group (5% EGT, n=10) was applied with base cream mixed with 5% ergothioneine, and the third group (10% EGT, n=10) was applied with base cream mixed with 10% ergothioneine. The applying was performed once a day for 4 weeks. Skin microorganisms were collected on the 0 th and 28 th days respectively, and the elasticity, moisture and desquamation of the skin of the subjects were measured on the 28 th day. Sterile water was used to wash Participants' faces and then applied on solid trypsin soy agar (TSA) medium. Individual colonies were collected and cultured in liquid trypsin soy broth (TSB) medium at 37° C. for 72 hours.
Each sample was centrifuged and the precipitate was collected, and the microbial DNA in the precipitate was extracted with a specific kit. The purity and quantity of DNA were measured by spectrophotometer. The 16S rRNA gene of bacteria was amplified with the following primers: forward, 5′-[…]-3′ (SEQ ID NO: 1); reverse, 5′-[…]-3′ (SEQ ID NO: 2). PCR was carried out in a 25 μL reactor, which contained 2 μL genomic DNA (10 ng/μL), 0.5 μL primers (10 μM), 12.5 μL 2×KAPA HiFi HotStart Ready Mix and 9.5 μL distilled water. […]

[2] = Elasticity, moisture and desquamation of skin of subjects after applying EGT base cream; format: in vivo, human; conditions: once a day for 4 weeks, day 28
Protocol: as §4

[3] = EGT 0.1-1000 μM, effect more significant with increasing concentration

SMILES: C[N+](C)(C)[C@@H](Cc1c[nH]c(=S)[nH]1)C(=O)[O-] [EGT, Ergothioneine]
- colonization of Corynebacterium spp. in the layered epidermis (live bacteria count) (Corynebacterium spp.; [3]): obviously inhibited
- inhibitory effect on Corynebacterium spp. compared with α-GO (Corynebacterium spp.; same concentration (1 μM)): better inhibitory effect
- colonization of Cutibacterium spp. in the layered epidermis (live bacteria count) (Cutibacterium spp.; [3]): obviously inhibited
- inhibitory effect on Cutibacterium spp. compared with α-GO (Cutibacterium spp.; same concentration (1 μM)): better inhibitory effect
- colonization of Malassezia in the layered epidermis (live count) (Malassezia; [3]): obviously inhibited
- inhibitory effect on Malassezia compared with α-GO (Malassezia; same concentration (1 μM)): better inhibitory effect
- colonization of Propionibacterium acnes in the layered epidermis (live bacteria count) (Propionibacterium acnes; [3]): obviously inhibited
- inhibitory effect on Propionibacterium acnes compared with α-GO (Propionibacterium acnes; same concentration (1 μM)): better inhibitory effect
- colonization of Staphylococcus epidermidis in the layered epidermis (live bacteria count) [1, 3]: obviously inhibited
- inhibitory effect on Staphylococcus epidermidis compared with α-GO ([1]; same concentration (1 μM)): better inhibitory effect
- effect on relative abundance of Streptococcus, 10% EGT group compared with 5% EGT (Streptococcus; 10% EGT base cream): more obvious
- relative abundance (RA) of Streptococcus in skin vs pure base cream group (Streptococcus; EGT base cream (5% and 10%), healthy women): more abundant
- increase of skin elasticity compared with 0% EGT group ([2]; 10% EGT base cream): about 20%
- increase of skin moisture compared with 0% EGT group ([2]; 10% EGT base cream): about 45%
- reduction of desquamation compared with 0% EGT group ([2]; 10% EGT base cream): about 30%
- skin desquamation ([2]; EGT base cream (5% and 10%)): avoid the problem of skin desquamation
- skin elasticity ([2]; EGT base cream (5% and 10%)): significantly increase
- skin moisture ([2]; EGT base cream (5% and 10%)): significantly increase
